Laboratory results: patent US20230085307A1, “PYRIDAZINONE COMPOUND AND HERBICIDE” (NISSAN CHEMICAL CORPORATION, priority 2019, published 2023)

Key:
[1] = tested on: oval-leafed pondweed; assay: Test Example 1: herbicidal activity, application before weed generation under submerged conditions (Table 16, symbol C); assay type: in vivo, oval-leafed pondweed (Monochoria vaginalis)
Procedure, shortened: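 Submerged Wagner pots (alluvial soil, 4 cm water) sown with weed seeds and planted with 2.5-leaf rice seedlings; emulsifiable concentrate diluted in water applied to water surface on sowing day. Held in greenhouse at 25-30 °C; injury scored 0-5 by herbicidal rate after three weeks.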

[2] = tested on: late watergrass; assay: Test Example 2: herbicidal activity, application during weed generation under submerged conditions (Table 17, symbol A); assay type: in vivo, late watergrass (Echinochloa oryzicola); settings: application during weed generation, submerged conditions
Procedure, shortened: (§1)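 Steps: fill Wagner pots with alluvial soil; add water to give 4 cm depth; sow the species mixed; grow under glass at 25–30° C.; at 1–2 leaves apply water-diluted emulsion formulation to the water surface at a fixed herbicide amount; score after 3 weeks.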

[3] = tested on: Japanese bulrush; assay: Test Example 2: herbicidal activity, application during weed generation under submerged conditions (Table 17, symbol B); assay type: in vivo, Japanese bulrush (Schoenoplectus juncoides); settings: application during weed generation, submerged conditions
Procedure, shortened: as §1

[4] = tested on: oval-leafed pondweed; assay: Test Example 2: herbicidal activity, application during weed generation under submerged conditions (Table 17, symbol C); assay type: in vivo, oval-leafed pondweed (Monochoria vaginalis); settings: application during weed generation, submerged conditions
Procedure, shortened: as §1

[5] = tested on: barnyard grass; assay: Test Example 4: herbicidal effect by soil treatment (Table 19, symbol H); assay type: in vivo, barnyard grass (Echinochloa crus-galli)
Procedure, shortened: (§2)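 Herbicidal effect was rated 3 weeks after treatment, using the scoring criteria of an earlier test. The compound, formulated as an emulsion and diluted in water to a set herbicide amount, had been sprayed uniformly on soil over freshly sown seeds. Growth took place in a greenhouse at 25° C. to 30° C.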

[6] = tested on: wild oat; assay: Test Example 4: herbicidal effect by soil treatment (Table 19, symbol I); assay type: in vivo, wild oat (Avena fatua)
Procedure, shortened: as §2

[7] = tested on: Italian ryegrass; assay: Test Example 4: herbicidal effect by soil treatment (Table 19, symbol K); assay type: in vivo, Italian ryegrass (Lolium multiflorum)
Procedure, shortened: as §2

[8] = tested on: windgrass; assay: Test Example 4: herbicidal effect by soil treatment (Table 19, symbol L); assay type: in vivo, windgrass (Apera spica-venti)
Procedure, shortened: as §2

[9] = tested on: velvetleaf; assay: Test Example 4: herbicidal effect by soil treatment (Table 19, symbol M); assay type: in vivo, velvetleaf (Abutilon theophrasti)
Procedure, shortened: as §2

[10] = tested on: lambsquarters; assay: Test Example 4: herbicidal effect by soil treatment (Table 19, symbol O); assay type: in vivo, lambsquarters (Chenopodium album)
Procedure, shortened: as §2

[11] = tested on: chickweed; assay: Test Example 4: herbicidal effect by soil treatment (Table 19, symbol P); assay type: in vivo, common chickweed (Stellaria media)
Procedure, shortened: as §2

[12] = tested on: false cleavers; assay: Test Example 4: herbicidal effect by soil treatment (Table 19, symbol Q); assay type: in vivo, false cleavers (Galium spurium)
Procedure, shortened: as §2

[13] = tested on: persian speedwell; assay: Test Example 4: herbicidal effect by soil treatment (Table 19, symbol R); assay type: in vivo, Persian speedwell (Veronica persica)
Procedure, shortened: as §2

[14] = tested on: southern crabgrass; assay: Test Example 5: herbicidal effect by foliage application, plastic box (Table 20, symbol F); assay type: in vivo, southern crabgrass (Digitaria ciliaris); settings: foliage application, three weeks after application
Procedure, shortened: (§3)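 Foliar spray test: emulsion formulation diluted in water to a set application rate, sprayed onto 14-day-old plants raised in diluvial soil at 25° C to 30° C under glass. Both herbicidal effect and crop effect rated visually three weeks later.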

[15] = tested on: wild oat; assay: Test Example 5: herbicidal effect by foliage application, plastic box (Table 20, symbol I); assay type: in vivo, wild oat (Avena fatua); settings: foliage application, three weeks after application
Procedure, shortened: as §3

[16] = tested on: chickweed; assay: Test Example 5: herbicidal effect by foliage application, plastic box (Table 20, symbol P); assay type: in vivo, common chickweed (Stellaria media); settings: foliage application, three weeks after application
Procedure, shortened: as §3

[17] = tested on: false cleavers; assay: Test Example 5: herbicidal effect by foliage application, plastic box (Table 20, symbol Q); assay type: in vivo, false cleavers (Galium spurium); settings: foliage application, three weeks after application
Procedure, shortened: as §3

[18] = amount of applied herbicide 320 g/ha
[19] = amount of applied herbicide 80 g/ha

Row | Structure (SMILES) | Herbicidal effect, C: oval-leafed pondweed [1, 18] | herbicidal effect rating, A: late watergrass ([2]; AAH 320 g/ha) | herbicidal effect rating, B: Japanese bulrush ([3]; AAH 320 g/ha) | herbicidal effect rating, C: oval-leafed pondweed ([4]; AAH 320 g/ha) | H: barnyard grass, herbicidal effect grade [5, 18] | I: wild oat, herbicidal effect grade [6, 18] | K: Italian ryegrass, herbicidal effect grade [7, 18] | L: windgrass, herbicidal effect grade [8, 18] | M: velvetleaf, herbicidal effect grade [9, 18] | O: lambsquarters, herbicidal effect grade [10, 18] | P: chickweed, herbicidal effect grade [11, 18] | Q: false cleavers, herbicidal effect grade [12, 18] | R: persian speedwell, herbicidal effect grade [13, 18] | F: southern crabgrass, herbicidal effect grade ([14]; 320 g/ha) | I: wild oat, herbicidal effect grade ([15]; 320 g/ha) | P: chickweed, herbicidal effect grade ([16]; 320 g/ha) | Q: false cleavers, herbicidal effect grade ([17]; 320 g/ha) | also measured
1 | CCCC(=O)Oc1c(C)nn(C)c(=O)c1-c1c(-c2ccccc2OCC)sc2cc(OC)ccc12 [3-071] | 5 (Herbicidal rate of 90% or more (almost completely withered)) | 5 (Herbicidal rate of 90% or more (almost completely withered)) | 5 (Herbicidal rate of 90% or more (almost completely withered)) | 5 (Herbicidal rate of 90% or more (almost completely withered)) | 3 (Herbicidal rate of 40% or more and less than 70%) | 3 (Herbicidal rate of 40% or more and less than 70%) | 2 (Herbicidal rate of 20% or more and less than 40%) | 4 (Herbicidal rate of 70% or more and less than 90%) | 1 (Herbicidal rate of 5% or more and less than 20%) | 3 (Herbicidal rate of 40% or more and less than 70%) | 5 (Herbicidal rate of 90% or more (almost completely withered)) | 5 (Herbicidal rate of 90% or more (almost completely withered)) | 5 (Herbicidal rate of 90% or more (almost completely withered)) | 5 (Herbicidal rate of 90% or more (almost completely withered)) | 5 (Herbicidal rate of 90% or more (almost completely withered)) | 5 (Herbicidal rate of 90% or more (almost completely withered)) | 5 (Herbicidal rate of 90% or more (almost completely withered)) | 
2 | CCOc1cc(F)ccc1-c1sc2cc(OC)ccc2c1-c1c(O)c(C)nn(C)c1=O [3-078] |  |  |  |  |  |  |  |  |  |  |  |  |  |  |  |  |  | Herbicidal effect, C: oval-leafed pondweed [1, 19]: 4 (Herbicidal rate of 70% or more and less than 90%); herbicidal effect rating, A: late watergrass ([2]; AAH 80 g/ha): 1 (Herbicidal rate of 5% or more and less than 20%); herbicidal effect rating, B: Japanese bulrush ([3]; AAH 80 g/ha): 5 (Herbicidal rate of 90% or more (almost completely withered)); herbicidal effect rating, C: oval-leafed pondweed ([4]; AAH 80 g/ha): 4 (Herbicidal rate of 70% or more and less than 90%); H: barnyard grass, herbicidal effect grade [5, 19]: 0 (Herbicidal rate of 5% or less (almost no effect)); I: wild oat, herbicidal effect grade [6, 19]: 0 (Herbicidal rate of 5% or less (almost no effect)); K: Italian ryegrass, herbicidal effect grade [7, 19]: 3 (Herbicidal rate of 40% or more and less than 70%); L: windgrass, herbicidal effect grade [8, 19]: 0 (Herbicidal rate of 5% or less (almost no effect)); M: velvetleaf, herbicidal effect grade [9, 19]: 0 (Herbicidal rate of 5% or less (almost no effect)); O: lambsquarters, herbicidal effect grade [10, 19]: 4 (Herbicidal rate of 70% or more and less than 90%); P: chickweed, herbicidal effect grade [11, 19]: 5 (Herbicidal rate of 90% or more (almost completely withered)); Q: false cleavers, herbicidal effect grade [12, 19]: 5 (Herbicidal rate of 90% or more (almost completely withered)); R: persian speedwell, herbicidal effect grade [13, 19]: 5 (Herbicidal rate of 90% or more (almost completely withered)); F: southern crabgrass, herbicidal effect grade ([14]; 80 g/ha): 5 (Herbicidal rate of 90% or more (almost completely withered)); I: wild oat, herbicidal effect grade ([15]; 80 g/ha): 5 (Herbicidal rate of 90% or more (almost completely withered)); P: chickweed, herbicidal effect grade ([16]; 80 g/ha): 5 (Herbicidal rate of 90% or more (almost completely withered)); Q: false cleavers, herbicidal effect grade ([17]; 80 g/ha): 5 (Herbicidal rate of 90% or more (almost completely withered))
3 | CCCC(=O)Oc1c(C)nn(C)c(=O)c1-c1c(-c2ccc(F)cc2OCC)sc2cc(OC)ccc12 [3-079] | 5 (Herbicidal rate of 90% or more (almost completely withered)) | 5 (Herbicidal rate of 90% or more (almost completely withered)) | 5 (Herbicidal rate of 90% or more (almost completely withered)) | 5 (Herbicidal rate of 90% or more (almost completely withered)) | 0 (Herbicidal rate of 5% or less (almost no effect)) | 0 (Herbicidal rate of 5% or less (almost no effect)) | 0 (Herbicidal rate of 5% or less (almost no effect)) | 3 (Herbicidal rate of 40% or more and less than 70%) | 3 (Herbicidal rate of 40% or more and less than 70%) | 3 (Herbicidal rate of 40% or more and less than 70%) | 4 (Herbicidal rate of 70% or more and less than 90%) | 4 (Herbicidal rate of 70% or more and less than 90%) | 5 (Herbicidal rate of 90% or more (almost completely withered)) | 5 (Herbicidal rate of 90% or more (almost completely withered)) | 5 (Herbicidal rate of 90% or more (almost completely withered)) | 5 (Herbicidal rate of 90% or more (almost completely withered)) | 5 (Herbicidal rate of 90% or more (almost completely withered)) | 
4 | COc1ccc2c(-c3c(O)c(C)nn(C)c3=O)c(-c3ccc4c(c3)OCCO4)sc2c1 [3-082] | 4 (Herbicidal rate of 70% or more and less than 90%) | 2 (Herbicidal rate of 20% or more and less than 40%) | 1 (Herbicidal rate of 5% or more and less than 20%) | 3 (Herbicidal rate of 40% or more and less than 70%) | 0 (Herbicidal rate of 5% or less (almost no effect)) | 0 (Herbicidal rate of 5% or less (almost no effect)) | 0 (Herbicidal rate of 5% or less (almost no effect)) | 0 (Herbicidal rate of 5% or less (almost no effect)) | 0 (Herbicidal rate of 5% or less (almost no effect)) | 0 (Herbicidal rate of 5% or less (almost no effect)) | 4 (Herbicidal rate of 70% or more and less than 90%) | 5 (Herbicidal rate of 90% or more (almost completely withered)) | 5 (Herbicidal rate of 90% or more (almost completely withered)) | 0 (Herbicidal rate of 5% or less (almost no effect)) | 0 (Herbicidal rate of 5% or less (almost no effect)) | 5 (Herbicidal rate of 90% or more (almost completely withered)) | 5 (Herbicidal rate of 90% or more (almost completely withered)) | 
5 | CCCC(=O)Oc1c(C)nn(C)c(=O)c1-c1c(-c2ccc3c(c2)OCCO3)sc2cc(OC)ccc12 [3-083] | 4 (Herbicidal rate of 70% or more and less than 90%) | 2 (Herbicidal rate of 20% or more and less than 40%) | 3 (Herbicidal rate of 40% or more and less than 70%) | 4 (Herbicidal rate of 70% or more and less than 90%) | 3 (Herbicidal rate of 40% or more and less than 70%) | 0 (Herbicidal rate of 5% or less (almost no effect)) | 0 (Herbicidal rate of 5% or less (almost no effect)) | 0 (Herbicidal rate of 5% or less (almost no effect)) | 0 (Herbicidal rate of 5% or less (almost no effect)) | 3 (Herbicidal rate of 40% or more and less than 70%) | 5 (Herbicidal rate of 90% or more (almost completely withered)) | 4 (Herbicidal rate of 70% or more and less than 90%) | 5 (Herbicidal rate of 90% or more (almost completely withered)) | 3 (Herbicidal rate of 40% or more and less than 70%) | 0 (Herbicidal rate of 5% or less (almost no effect)) | 5 (Herbicidal rate of 90% or more (almost completely withered)) | 5 (Herbicidal rate of 90% or more (almost completely withered)) | 
